Source: ChEMBL document CHEMBL2074091, “Transport of methotrexate, methotrexate polyglutamates, and 17beta-estradiol 17-(beta-D-glucuronide) by ABCG2: effects of acquired mutations at R482 on methotrexate transport” (Cancer Res, 2003)

Legend:
Assay type in all cases: functional, cell membranes
[1] = biological target: T1, Broad substrate specificity ATP-binding cassette transporter ABCG2 (Homo sapiens, UniProt Q9UNQ0); test: (§1) TP_TRANSPORTER: uptake (vesicle) in membrane vesicle from ABCG2-R482-expressing HEK293 cells; details: hek293
T1 sequence (Q9UNQ0 whole entry): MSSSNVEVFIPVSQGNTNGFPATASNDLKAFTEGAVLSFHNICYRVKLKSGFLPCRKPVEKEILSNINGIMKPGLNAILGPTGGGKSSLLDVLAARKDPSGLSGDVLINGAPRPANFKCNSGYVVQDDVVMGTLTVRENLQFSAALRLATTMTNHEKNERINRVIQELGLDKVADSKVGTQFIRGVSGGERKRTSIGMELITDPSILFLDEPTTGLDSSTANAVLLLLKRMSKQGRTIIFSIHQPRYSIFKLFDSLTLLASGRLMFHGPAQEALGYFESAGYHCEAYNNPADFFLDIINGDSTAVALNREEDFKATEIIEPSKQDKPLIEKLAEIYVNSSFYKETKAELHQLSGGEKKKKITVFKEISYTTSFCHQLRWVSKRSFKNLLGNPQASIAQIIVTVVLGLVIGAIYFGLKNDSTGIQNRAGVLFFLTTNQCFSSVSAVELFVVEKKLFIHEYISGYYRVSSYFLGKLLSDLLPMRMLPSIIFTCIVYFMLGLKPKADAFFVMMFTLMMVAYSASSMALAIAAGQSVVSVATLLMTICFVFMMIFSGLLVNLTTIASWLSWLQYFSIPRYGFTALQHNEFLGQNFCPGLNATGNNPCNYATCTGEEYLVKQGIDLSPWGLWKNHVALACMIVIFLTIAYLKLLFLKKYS

[2] = biological target: Multidrug resistance associated protein (Homo sapiens) (UniProt Q96QA9); test: TP_TRANSPORTER: uptake (vesicle) in membrane vesicles from MRP3-expressing HEK293 cells
Sequence of Multidrug resistance associated protein (Homo sapiens) (Q96QA9 as listed by the source): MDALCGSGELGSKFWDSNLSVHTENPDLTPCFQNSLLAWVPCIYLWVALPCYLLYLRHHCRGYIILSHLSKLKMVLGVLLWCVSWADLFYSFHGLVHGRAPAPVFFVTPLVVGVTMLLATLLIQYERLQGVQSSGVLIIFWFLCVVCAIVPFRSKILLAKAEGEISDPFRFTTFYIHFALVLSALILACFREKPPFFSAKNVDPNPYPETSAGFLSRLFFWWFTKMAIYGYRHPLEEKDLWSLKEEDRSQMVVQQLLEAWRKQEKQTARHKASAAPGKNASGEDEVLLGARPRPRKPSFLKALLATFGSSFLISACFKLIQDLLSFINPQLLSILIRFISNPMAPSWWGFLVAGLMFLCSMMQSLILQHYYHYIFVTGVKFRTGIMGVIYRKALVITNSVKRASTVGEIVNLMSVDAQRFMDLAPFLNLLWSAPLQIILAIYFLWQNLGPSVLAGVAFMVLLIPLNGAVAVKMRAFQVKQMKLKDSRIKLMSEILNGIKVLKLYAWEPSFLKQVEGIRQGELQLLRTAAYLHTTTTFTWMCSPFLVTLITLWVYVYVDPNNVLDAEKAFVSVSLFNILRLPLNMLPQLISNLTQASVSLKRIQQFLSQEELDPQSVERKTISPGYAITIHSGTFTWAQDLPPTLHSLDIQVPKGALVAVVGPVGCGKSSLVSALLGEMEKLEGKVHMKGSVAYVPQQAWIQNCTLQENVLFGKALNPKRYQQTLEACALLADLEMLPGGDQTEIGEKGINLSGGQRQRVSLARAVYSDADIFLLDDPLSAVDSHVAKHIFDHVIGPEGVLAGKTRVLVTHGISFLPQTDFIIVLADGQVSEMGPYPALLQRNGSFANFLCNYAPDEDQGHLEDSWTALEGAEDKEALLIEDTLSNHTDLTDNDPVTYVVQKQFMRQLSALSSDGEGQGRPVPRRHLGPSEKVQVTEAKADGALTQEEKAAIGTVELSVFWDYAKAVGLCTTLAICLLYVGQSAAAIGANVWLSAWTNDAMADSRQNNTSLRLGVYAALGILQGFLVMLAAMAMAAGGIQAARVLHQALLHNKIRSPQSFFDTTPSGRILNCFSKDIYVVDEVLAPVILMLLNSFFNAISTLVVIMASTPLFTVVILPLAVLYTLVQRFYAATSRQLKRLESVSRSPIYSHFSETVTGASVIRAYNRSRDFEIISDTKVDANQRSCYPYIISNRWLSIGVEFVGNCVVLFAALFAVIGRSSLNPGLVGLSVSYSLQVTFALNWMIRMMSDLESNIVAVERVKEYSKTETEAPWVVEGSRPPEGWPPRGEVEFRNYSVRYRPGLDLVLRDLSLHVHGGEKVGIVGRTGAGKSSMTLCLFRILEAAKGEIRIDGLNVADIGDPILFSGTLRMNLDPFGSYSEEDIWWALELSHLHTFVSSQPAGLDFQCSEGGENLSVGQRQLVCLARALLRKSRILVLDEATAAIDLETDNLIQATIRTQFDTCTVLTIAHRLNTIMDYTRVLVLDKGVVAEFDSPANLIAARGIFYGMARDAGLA

[3] = biological target: ATP-binding cassette sub-family C member 2 (Homo sapiens, UniProt Q92887); test: TP_TRANSPORTER: uptake (vesicle) in membrane vesicle from MRP2-expressing HEK293 cells
Sequence of ATP-binding cassette sub-family C member 2 (Q92887 whole entry): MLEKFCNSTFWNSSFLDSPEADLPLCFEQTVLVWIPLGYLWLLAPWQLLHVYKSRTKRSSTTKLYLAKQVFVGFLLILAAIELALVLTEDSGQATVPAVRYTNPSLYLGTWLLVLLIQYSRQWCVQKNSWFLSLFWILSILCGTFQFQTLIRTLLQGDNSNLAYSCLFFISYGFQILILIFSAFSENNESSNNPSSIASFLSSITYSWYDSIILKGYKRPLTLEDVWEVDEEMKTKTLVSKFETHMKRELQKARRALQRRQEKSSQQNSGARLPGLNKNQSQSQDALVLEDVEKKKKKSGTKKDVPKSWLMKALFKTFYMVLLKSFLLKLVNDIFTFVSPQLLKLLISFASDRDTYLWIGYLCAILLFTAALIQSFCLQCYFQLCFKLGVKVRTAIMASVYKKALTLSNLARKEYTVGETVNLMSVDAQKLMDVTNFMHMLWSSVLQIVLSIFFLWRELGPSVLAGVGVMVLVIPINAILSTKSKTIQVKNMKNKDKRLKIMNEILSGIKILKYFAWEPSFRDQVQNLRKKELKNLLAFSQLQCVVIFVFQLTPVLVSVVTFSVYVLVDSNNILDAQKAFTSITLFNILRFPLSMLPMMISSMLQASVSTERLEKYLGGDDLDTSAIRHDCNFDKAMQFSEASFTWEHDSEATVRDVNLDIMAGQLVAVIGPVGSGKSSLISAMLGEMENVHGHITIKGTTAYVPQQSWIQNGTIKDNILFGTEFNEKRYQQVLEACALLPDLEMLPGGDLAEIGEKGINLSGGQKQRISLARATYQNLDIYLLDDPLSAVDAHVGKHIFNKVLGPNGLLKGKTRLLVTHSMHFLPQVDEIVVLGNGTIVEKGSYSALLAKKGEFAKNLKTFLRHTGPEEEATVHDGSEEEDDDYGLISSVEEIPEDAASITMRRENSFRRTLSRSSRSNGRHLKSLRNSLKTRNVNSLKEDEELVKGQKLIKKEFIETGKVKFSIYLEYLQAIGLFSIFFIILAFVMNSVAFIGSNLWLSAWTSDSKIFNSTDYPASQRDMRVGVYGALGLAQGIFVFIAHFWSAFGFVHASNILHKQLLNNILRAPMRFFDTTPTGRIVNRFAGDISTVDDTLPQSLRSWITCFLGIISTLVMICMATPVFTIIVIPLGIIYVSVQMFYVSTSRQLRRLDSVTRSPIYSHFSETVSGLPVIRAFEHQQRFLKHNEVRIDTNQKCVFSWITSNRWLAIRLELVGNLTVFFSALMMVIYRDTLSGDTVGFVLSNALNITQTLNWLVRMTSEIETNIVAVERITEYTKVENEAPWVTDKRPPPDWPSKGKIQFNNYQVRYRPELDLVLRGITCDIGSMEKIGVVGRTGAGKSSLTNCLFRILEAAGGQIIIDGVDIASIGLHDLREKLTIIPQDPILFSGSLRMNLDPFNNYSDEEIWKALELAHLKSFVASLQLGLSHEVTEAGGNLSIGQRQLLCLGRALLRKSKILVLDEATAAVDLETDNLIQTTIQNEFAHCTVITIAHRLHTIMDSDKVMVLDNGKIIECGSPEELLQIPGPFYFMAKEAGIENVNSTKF

ABCG2 (R482) = biological target: T2, ABCG2 (R482) (Homo sapiens, UniProt Q9UNQ0); test: as §1; details: membrane vesicles from ABCG2-R482-expressing HEK293 cells
T2 sequence (Q9UNQ0 whole entry): T1 sequence (Q9UNQ0 whole entry)

Activity [1] | Compound | further results
substrate [] | CN(Cc1cnc2nc(N)nc(N)c2n1)c1ccc(C(=O)N[C@@H](CCC(=O)N[C@@H](CCC(=O)N[C@@H](CCC(=O)N[C@@H](CCC(=O)O)C(=O)O)C(=O)O)C(=O)O)C(=O)O)cc1 | –
substrate [] | CN(Cc1cnc2nc(N)nc(N)c2n1)c1ccc(C(=O)N[C@@H](CCC(=O)N[C@@H](CCC(=O)N[C@@H](CCC(=O)O)C(=O)O)C(=O)O)C(=O)O)cc1 | –
– | Nc1nc(=O)c2c([nH]1)NCC(CNc1ccc(C(=O)N[C@@H](CCC(=O)O)C(=O)O)cc1)N2C=O (some centres not stated) | Activity [2]: substrate []
substrate [] | Nc1nc2ncc(CNc3ccc(C(=O)N[C@@H](CCC(=O)O)C(=O)O)cc3)nc2c(=O)[nH]1 [FOLIC ACID] | –
– | Nc1nc2c(c(=O)[nH]1)N(C=O)C(CNc1ccc(C(=O)N[C@@H](CCC(=O)O)C(=O)O)cc1)CN2 (some centres not stated) [LEUCOVORIN] | Activity [3]: substrate []
– | CN(Cc1cnc2nc(N)nc(N)c2n1)c1ccc(C(=O)N[C@@H](CCC(=O)O)C(=O)O)cc1 [METHOTREXATE] | Km (ABCG2 (R482)): 1300 µM

Compound | Activity [1] | further results
C[C@]12CC[C@@H]3c4ccc(O)cc4CC[C@H]3[C@@H]1CC[C@@H]2O[C@@H]1O[C@H](C(=O)O)[C@@H](O)[C@H](O)[C@H]1O [ESTRADIOL 17B GLUCURONIDE] | substrate [] | –
